# Experimental data from patent US10898548B2, “Modulators of protein tyrosine phosphatase and uses thereof” (LEUVAS THERAPEUTICS, priority 2015, dated 2021).
# What was measured:
# LFA-1 = LFA-1 high affinity state detection with 327C mAb; type: cell-based, human; settings: CTRL 100; for LFA-1 high affinity state, percentages of fold increases over the control: 40 μM P1 or P1-TKIP, 100 μM AG490, 200 μM WHI-P154, 1 hour, 50 nM fMLP 60 sec; for LFA-1 high affinity state, mean fluorescence intensity relative to the fMLP-stimulated control: monocytes, 50 nM fMLP 1 min, concentration not given; for LFA-1 high affinity state, percentages of fold-increase over control: 50 μM TAT peptides or 0.5 μM TAT-ICD, 1 hour, 50 nM fMLP 60 seconds
# Experimental: The ability of P1-WD to inhibit triggering of LFA-1 to a high-affinity state was assessed using a specific reporter monoclonal antibody 327C, which detects the fully extended LFA-1 conformational epitope corresponding to heterodimer high affinity state. Briefly, freshly isolated human monocytes were suspended in standard adhesion buffer at 2×10^6/ml were stimulated under stirring at 37° C. for 1 min with 50 nM fMLP in the presence of 10 µg/ml 327C mAb. After rapid washing, the cells were stained with FITC-conjugated secondary antibody and analyzed by cytofluorimetric quantification (Table 4). Data are mean fluorescence intensity measured by flow cytometry relative to the fMLP-stimulated control (CTRL) cells.
# The ability of TAT-ICD to trigger the high affinity state of LFA-1 was tested as described in Example 2, Table 4 and the results are in Table 8. Human monocytes were treated with buffer (CTRL), 50 μM TAT peptides, or 0.5 μM TAT-ICD for 1 hour at 37° C. and stimulated with 50 nM fMLP for 60 seconds. Data are the percentages of fold-increase over control; mean values of 6 experiments
# Briefly, LFA-1 high affinity state detection. Human monocytes were treated with buffer (CTRL=control), 40 μM P1 or P1-TKIP peptides, 100 μM AG490 or 200 μM WHI-P154 for 1 hour at 37° C. and stimulated with 50 nM fMLP for 60 sec. LFA-1 high affinity state conformer was detected by cytofluorimetric analysis with 327C antibody. Shown are percentages of fold increases over the control; mean values of 5 experiments.
# human primary monocytes [1] = assay: static adhesion of fMLP-stimulated monocytes to fibrinogen; type: cell-based; design: fMLP-triggered static adhesion to fibrinogen: unit not given here; settings: CTRL 100; for fMLP-induced adhesion to fibrinogen: 40 μM P1 or P1-TKIP, 100 μM AG490, 200 μM WHI-P154, 1 hour, 50 nM fMLP 60 sec; for fMLP-triggered static adhesion to fibrinogen: monocytes
# Experimental: We investigated the functional effect of PTPRG activation on integrin activation and mediated adhesion by chemoattractants in human primary monocytes and PMNs in a static and flow adhesion assays. Briefly, human primary monocytes or polymorphonuclear cells were suspended at 5×10^6/ml in standard adhesion buffer. Adhesion assays were performed on 18-well glass slides coated with 1 mg/ml human fibrinogen or with 1 μg/ml human ICAM-1 in PBS; 20 μl of cell suspension were added to the coated wells and stimulated for 1 min at 37° C. with 5 μl of fMLP, 0.05 μM final concentration. After rapid washing, adherent cells were fixed in ice-cold 1.5% glutaraldehyde in PBS, and still images of adherent cells in 0.2 mm^2 fields were acquired al 20× phase contrast magnification, NA 0.40, with a charge-coupled device camera (ICD-42B; Ikegami) connected to an inverted microscope (IX50; Olympus). Image acquisition and computer-assisted enumeration of adherent cells were performed with ImageJ (National Institute of Health). […]
# (§1) To evaluate whether JAK2 mediates chemoattractant-induced adhesion of human monocytes to beta-2 integrin substrates human monocytes were treated control buffer or P1 or with the three JAK inhibitors. Briefly, human monocytes were treated with buffer (CTRL=control), or 40 μM P1 or P1-TKIP peptides, 100 μM AG490 or 200 μM WHI-P154 for 1 hour at 37° C. and stimulated with 50 nM fMLP for 60 sec.; data are mean and standard deviation (SD) of 6 experiments in triplicate.
# human primary monocytes [2] = assay: static adhesion of fMLP-stimulated monocytes to ICAM-1; type: cell-based; settings: CTRL 100; for fMLP-induced adhesion to ICAM-1: 40 μM P1 or P1-TKIP, 100 μM AG490, 200 μM WHI-P154, 1 hour, 50 nM fMLP 60 sec; for fMLP-triggered static adhesion to ICAM-1: monocytes
# Experimental: We investigated the functional effect of PTPRG activation on integrin activation and mediated adhesion by chemoattractants in human primary monocytes and PMNs in a static and flow adhesion assays. Briefly, human primary monocytes or polymorphonuclear cells were suspended at 5×10^6/ml in standard adhesion buffer. Adhesion assays were performed on 18-well glass slides coated with 1 mg/ml human fibrinogen or with 1 μg/ml human ICAM-1 in PBS; 20 μl of cell suspension were added to the coated wells and stimulated for 1 min at 37° C. with 5 μl of fMLP, 0.05 μM final concentration. After rapid washing, adherent cells were fixed in ice-cold 1.5% glutaraldehyde in PBS, and still images of adherent cells in 0.2 mm^2 fields were acquired al 20× phase contrast magnification, NA 0.40, with a charge-coupled device camera (ICD-42B; Ikegami) connected to an inverted microscope (IX50; Olympus). Image acquisition and computer-assisted enumeration of adherent cells were performed with ImageJ (National Institute of Health).
# We then investigated the functional effect of TAT-ICD on integrin activation and mediated adhesion by chemoattractants. Static adhesion assays were performed as described in Example 2. […] Data are mean number of adherent cells in 5 experiments in triplicate.
# as §1
# Human primary monocytes were isolated from buffy coats from healthy donors and pre-incubated for 30 minutes at room temperature with our without 0.075 micromolar PTPX. Standard adhesion assays on ICAM-1 coated glass slides. Cell suspensions were added to the coated wells for 1 minute, stimulated for 1 minute at 37° C. with […] fMLP. Non-adherent cells were washed away and adherent cells were fixed in ice-cold 1.5% glutaraldehyde in PBS and adherent cells were counted using computer assisted automatic quantification. Data are from a representative experiment and are the mean and standard deviation of 24 measurements per condition (Table 35).
# U251 GBM cells = assay: VYBRANT DyeCycle Violet early apoptosis, U251 GBM cells; type: cell-based
# Experimental: Cell viability and survival was measured using the MTT assay, a colorimetric assay for assessing cell metabolic activity set up under conditions where the absorption reflects the number of viable cells present (Table 21 and 22) and expressed as relative absorption at 570 nm. Early apoptosis was measured using VYBRANT DyeCycle Violet stain (Molecular Probes), a DNA-selective, cell membrane-permeant dye that can distinguish the compacted state of the nuclear chromatin in apoptotic cells as determined by flow cytometry and presented as the percent of cells that are apoptotic (Table 23 and 24). The actual number of cells following treatment with TAT-ICD or TAT alone (Table 25) was determined using flow cytometry compared to an input of 5,000 cells at time zero. To confirm apoptosis the TUNEL labeling assay, which detects DNA strand breaks in apoptotic cells by fluorescence microscopy, was also used to examine U251 cells treated with the PTPRG WD. Briefly, the assay used an optimized terminal transferase ([…]) to label 3′OH ends in genomic DNA with TMR-dUTP, thus allowing the measurement and quantification of cell death by apoptosis. U251 cells were pretreated for 1, 3 and 6 hours with 50 μM P1-WD. Then cells were fixed and permeabilized, incubated with TUNEL reaction mixture for 1 h at RT, and then stained with DAPI (for nuclei detection) and with Alexa670-Phalloidin (to detect actin in cell membranes). After the staining steps, cells were visualized with a confocal microscope.
# [3] = P1 or P1-WD 50 μM, 6 h, Control 5
# [4] = P1 or P1-WD 50 μM, 9 h, Control 12
# [5] = P1 or P1-WD 50 μM, 24 h, Control 8
# [6] = control peptide, concentration not given
compound,measurement,setting,value
N#C/C(=C/c1ccc(O)c(O)c1)C(=O)NCc1ccccc1 [AG490],"LFA-1 high affinity state, percentages of fold increases over the control",LFA-1,66%
same,fMLP-induced adhesion to fibrinogen,human primary monocytes [1],32.8%
same,fMLP-induced adhesion to ICAM-1,human primary monocytes [2],23.5%
COc1cc2ncnc(Nc3ccc(O)c(Br)c3)c2cc1OC [WHI-P154],"LFA-1 high affinity state, percentages of fold increases over the control",LFA-1,58%
same,fMLP-induced adhesion to fibrinogen,human primary monocytes [1],18%
same,fMLP-induced adhesion to ICAM-1,human primary monocytes [2],6.4%
"P1-WD: fusion Trojan peptide SEQ ID 3: Penetratin, glycine, PTPRG wedge domain aa 831-856; RQIKIWFQNRRMKWKKGKQFVKHIGELYSNNQHGFSEDFEEVQ (listed as Homo sapiens)","LFA-1 high affinity state, mean fluorescence intensity relative to the fMLP-stimulated control",LFA-1,22
same,fMLP-triggered static adhesion to fibrinogen,human primary monocytes [1]; P1-WD 10 micromolar,41
same,fMLP-triggered static adhesion to fibrinogen,human primary monocytes [1]; P1-WD 25 micromolar,18
same,fMLP-triggered static adhesion to fibrinogen,human primary monocytes [1]; P1-WD 50 micromolar,16
same,fMLP-triggered static adhesion to ICAM-1,human primary monocytes [2]; P1-WD 10 micromolar,78
same,fMLP-triggered static adhesion to ICAM-1,human primary monocytes [2]; P1-WD 25 micromolar,40
same,fMLP-triggered static adhesion to ICAM-1,human primary monocytes [2]; P1-WD 50 micromolar,19
same,percent of apoptotic cells (early apoptosis),"U251 GBM cells; P1-WD 10 μM, 6 h, Control 5",13%
same,percent of apoptotic cells (early apoptosis),"U251 GBM cells; P1-WD 10 μM, 9 h, Control 12",21%
same,percent of apoptotic cells (early apoptosis),"U251 GBM cells; P1-WD 10 μM, 24 h, Control 8",25%
same,percent of apoptotic cells (early apoptosis),"U251 GBM cells; P1-WD 25 μM, 6 h, Control 5",21%
same,percent of apoptotic cells (early apoptosis),"U251 GBM cells; P1-WD 25 μM, 9 h, Control 12",30%
same,percent of apoptotic cells (early apoptosis),"U251 GBM cells; P1-WD 25 μM, 24 h, Control 8",30%
same,percent of apoptotic cells (early apoptosis),U251 GBM cells; [3],33%
same,percent of apoptotic cells (early apoptosis),U251 GBM cells; [4],40%
same,percent of apoptotic cells (early apoptosis),U251 GBM cells; [5],40%
"P1: Penetratin delivery peptide, 16 aa RQIKIWFQNRRMKWKK (SEQ ID 4), control [reference compound]","LFA-1 high affinity state, percentages of fold increases over the control",LFA-1,90%
same,"LFA-1 high affinity state, mean fluorescence intensity relative to the fMLP-stimulated control",LFA-1,91
same,fMLP-induced adhesion to fibrinogen,human primary monocytes [1],110%
same,fMLP-triggered static adhesion to fibrinogen,human primary monocytes [1]; [6],94
same,fMLP-induced adhesion to ICAM-1,human primary monocytes [2],101%
same,fMLP-triggered static adhesion to ICAM-1,human primary monocytes [2]; [6],102
same,percent of apoptotic cells (early apoptosis),U251 GBM cells; [3],8%
same,percent of apoptotic cells (early apoptosis),U251 GBM cells; [4],15%
same,percent of apoptotic cells (early apoptosis),U251 GBM cells; [5],15%
TAT (GRKKRRQRRRPPQ; listed as Homo sapiens) [reference compound],"LFA-1 high affinity state, percentages of fold-increase over control",LFA-1,85.3%
same,fMLP-triggered static adhesion to fibrinogen,human primary monocytes [1]; 0.5 μM,100
same,fMLP-triggered static adhesion to fibrinogen,human primary monocytes [1]; 1 μM,98
same,fMLP-triggered static adhesion to ICAM-1,human primary monocytes [2]; 0.5 μM,100
same,fMLP-triggered static adhesion to ICAM-1,human primary monocytes [2]; 1 μM,110
same,percent of apoptotic cells (early apoptosis),"U251 GBM cells; TAT 50 uM, 6 hr, CTRL 4.6",10.0%
same,percent of apoptotic cells (early apoptosis),"U251 GBM cells; TAT 50 uM, 9 hr, CTRL 6.0",11.0%
same,percent of apoptotic cells (early apoptosis),"U251 GBM cells; TAT 50 uM, 24 hr, CTRL 7.0",8.0%
TAT-ICD: fusion recombinant protein SEQ ID 5: PTPRG intracellular domain aa 797-1445 fused to 13 aa TAT sequence,"LFA-1 high affinity state, percentages of fold-increase over control",LFA-1,24.3%
same,fMLP-triggered static adhesion to fibrinogen,human primary monocytes [1]; 0.01 μM,45.4
same,fMLP-triggered static adhesion to fibrinogen,human primary monocytes [1]; 0.05 μM,35.5
same,fMLP-triggered static adhesion to fibrinogen,human primary monocytes [1]; 0.10 μM,27.9
same,fMLP-triggered static adhesion to fibrinogen,human primary monocytes [1]; 0.5 μM,20.1
same,fMLP-triggered static adhesion to fibrinogen,human primary monocytes [1]; 1 μM,14.0
same,fMLP-triggered static adhesion to ICAM-1,human primary monocytes [2]; 0.01 μM,48
same,fMLP-triggered static adhesion to ICAM-1,human primary monocytes [2]; 0.05 μM,36
same,fMLP-triggered static adhesion to ICAM-1,human primary monocytes [2]; 0.10 μM,30
same,fMLP-triggered static adhesion to ICAM-1,human primary monocytes [2]; 0.5 μM,14
same,fMLP-triggered static adhesion to ICAM-1,human primary monocytes [2]; 1 μM,10
same,percent of apoptotic cells (early apoptosis),"U251 GBM cells; TAT-ICD 0.5 uM, 6 hr, CTRL 4.6",2.6%
same,percent of apoptotic cells (early apoptosis),"U251 GBM cells; TAT-ICD 0.5 uM, 9 hr, CTRL 6.0",14.0%
same,percent of apoptotic cells (early apoptosis),"U251 GBM cells; TAT-ICD 0.5 uM, 24 hr, CTRL 7.0",21.0%
same,percent of apoptotic cells (early apoptosis),"U251 GBM cells; TAT-ICD 1 uM, 6 hr, CTRL 4.6",6.0%
same,percent of apoptotic cells (early apoptosis),"U251 GBM cells; TAT-ICD 1 uM, 9 hr, CTRL 6.0",17.0%
same,percent of apoptotic cells (early apoptosis),"U251 GBM cells; TAT-ICD 1 uM, 24 hr, CTRL 7.0",25.0%
same,percent of apoptotic cells (early apoptosis),"U251 GBM cells; TAT-ICD 2 uM, 6 hr, CTRL 4.6",15.0%
same,percent of apoptotic cells (early apoptosis),"U251 GBM cells; TAT-ICD 2 uM, 9 hr, CTRL 6.0",25.0%
same,percent of apoptotic cells (early apoptosis),"U251 GBM cells; TAT-ICD 2 uM, 24 hr, CTRL 7.0",30.0%
